{"source": "paper PMC12216609", "about": "“Inhibitors of eIF1A-ribosome interaction unveil uORF-dependent regulation of translation initiation and antitumor and antiviral effects” (The EMBO Journal, 2025)", "key": {"eIF1A-RPS10 interaction": {"molecular_target": "T1, eIF1A-RPS10 interaction (Homo sapiens, UniProt P46783+P47813)", "T1 construct": "made in house; host or cells: E. coli BL21 (PRSFduet); unpurified lysate supernatant", "T1 sequence (P47813 whole entry, one chain of several)": "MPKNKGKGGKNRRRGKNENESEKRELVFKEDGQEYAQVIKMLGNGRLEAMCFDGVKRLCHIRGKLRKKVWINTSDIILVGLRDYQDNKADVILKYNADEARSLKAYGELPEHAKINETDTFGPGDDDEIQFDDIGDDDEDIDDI", "assay": "Split-Renilla luciferase eIF1A-RPS10 interaction screen, dose-response", "type": "biochemical", "settings": "for IC50: summary table, read-out: IC50 concentration (µM), IC50 screen; for pIC50: Appendix Table S1, read-out: IC50 from the split RL screen", "outline": "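Expression at 16 °C overnight after 0.5 mM IPTG induction; sonication and centrifugation in TKE buffer; lysate supernatant checked for Renilla activity; compound testing against the eIF1A–RPS10 split-luciferase pair, including fragment-only controls.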"}, "NSP1": {"molecular_target": "NSP1 (Severe acute respiratory syndrome coronavirus 2, UniProt P0DTD1)"}, "eIF1A without NTT": {"molecular_target": "T2, eIF1A without NTT (Homo sapiens, UniProt P47813)", "T2 construct": "His-bdSUMO (cleaved yes); made in house; host or cells: E. coli (BL-21)", "T2 sequence (P47813 31-144 limits assumed)": "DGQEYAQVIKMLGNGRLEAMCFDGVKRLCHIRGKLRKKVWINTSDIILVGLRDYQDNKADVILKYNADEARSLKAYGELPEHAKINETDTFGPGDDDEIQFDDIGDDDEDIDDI", "assay": "Fluorescence binding assay with NTT-truncated eIF1A"}, "[1]": {"tested_on": "uORF-bearing 5'UTR firefly reporters in HEK293T cells", "assay": "uORF reinitiation / leaky scanning firefly reporters", "settings": "for ff/rl, 46 leaky reporter / ff/rl, 46 reporter / ff/rl, normal reporter: single replicates, not normalized to DMSO", "description": "(M) The reference and uORF-bearing reporters were transfected to HEK293T cells together with RL, which served to normalize translation efficiency. The reporter activities are represented as firefly vs RL; n ≥3 independent biological replicates, error bars represent SEM. *P < 0.05, **P < 0.01, Student t test. (N) Firefly Reporters (J) were transfected to HEK293T cells together with normalizing RL. […] Results are represented as firefly vs. RL normalized to DMSO in each biological replicate; n = 4, error bars represent SEM. *P < 0.05, **P < 0.01, Student t test.\nIn the first and second, we inserted an out-of-frame uAUG 46 or 95 nucleotides before the main ORF, respectively, followed by a downstream stop codon generating an uORF of 10 amino acids. In these constructs, the translation from the main ORF could be either by reinitiation or leaky scanning. In the third construct, this out of frame uAUG lacks a stop codon, causing initiation from the main ORF to exclusively occur via leaky scanning (Fig. 4L). These reporters were transfected into HEK293T cells together with RL luciferase reporter for normalizing transfection efficiency. […] We next examined these reporters in the presence of 1Ais."}}, "note": "pIC50: −log10 of the molar value. Several values for one entry are separate records, joined by “and”; a condition that tells them apart may be missing. Equal values may be shown once. Read-outs that look alike come from different tables or passages of the source.", "data": [{"smiles": "C=CCNC(=O)CN1CCN(Cc2nc3cc(-c4ccc(Cl)cc4)sc3c(=O)[nH]2)CC1", "note": "[1Ai-1524]", "values": [{"measurement": "IC50", "setting": "eIF1A-RPS10 interaction", "value": 30, "unit": "µM"}]}, {"smiles": "CCOC(=O)c1ccsc1NC(=O)CN1C(=O)NC(C)(c2cccc3ccccc23)C1=O", "note": "(centres unmarked) [1Ai-1861]", "values": [{"measurement": "pIC50", "setting": "eIF1A-RPS10 interaction", "value": 4.85}, {"measurement": "IC50", "setting": "eIF1A-RPS10 interaction", "value": 15, "unit": "µM"}, {"measurement": "GFP reporter ratio nsp1/gfp, avg", "setting": "NSP1", "value": 0.5997}, {"measurement": "GFP reporter ratio nsp1/gfp, rep 1", "setting": "NSP1", "value": 0.5997}, {"measurement": "gfp signal, mean of duplicate wells", "setting": "NSP1", "value": 311}, {"measurement": "nsp1 signal, mean of duplicate wells", "setting": "NSP1", "value": 186.5}, {"measurement": "ratio (nsp1/gfp)", "setting": "NSP1", "value": 0.600}]}, {"smiles": "O=C(CSc1nc(-c2ccccc2)cn1-c1ccccc1)NC(=O)Nc1ccccc1", "note": "[1Ai-2383]", "values": [{"measurement": "IC50", "setting": "eIF1A-RPS10 interaction", "value": 23, "unit": "µM"}, {"measurement": "GFP reporter ratio nsp1/gfp, avg", "setting": "NSP1", "value": 0.4187}, {"measurement": "GFP reporter ratio nsp1/gfp, rep 1", "setting": "NSP1", "value": 0.4187}, {"measurement": "gfp signal, mean of duplicate wells", "setting": "NSP1", "value": 2499.5}, {"measurement": "nsp1 signal, mean of duplicate wells", "setting": "NSP1", "value": 1046.5}, {"measurement": "ratio (nsp1/gfp)", "setting": "NSP1", "value": 0.419}]}, {"smiles": "COc1ccc2oc(C(=O)OC(C)C(=O)Nc3sccc3C(N)=O)c(C)c2c1", "note": "(centres unmarked) [1Ai-3044]", "values": [{"measurement": "pIC50", "setting": "eIF1A-RPS10 interaction", "value": 4.82}, {"measurement": "IC50", "setting": "eIF1A-RPS10 interaction", "value": 10, "unit": "µM"}, {"measurement": "GFP reporter ratio nsp1/gfp, avg", "setting": "NSP1", "value": 0.4548}, {"measurement": "GFP reporter ratio nsp1/gfp, rep 1", "setting": "NSP1", "value": 0.4548}, {"measurement": "gfp signal, mean of duplicate wells", "setting": "NSP1", "value": 2086.5}, {"measurement": "nsp1 signal, mean of duplicate wells", "setting": "NSP1", "value": 949}, {"measurement": "ratio (nsp1/gfp)", "setting": "NSP1", "value": 0.455}]}, {"smiles": "O=C(C=Cc1ccc(Cl)s1)Nc1cccc2ncccc12", "note": "[1Ai-4860]", "values": [{"measurement": "IC50", "setting": "eIF1A-RPS10 interaction", "value": 23, "unit": "µM"}, {"measurement": "GFP reporter ratio nsp1/gfp, avg", "setting": "NSP1", "value": 0.4044}, {"measurement": "GFP reporter ratio nsp1/gfp, rep 1", "setting": "NSP1", "value": 0.428}, {"measurement": "GFP reporter ratio nsp1/gfp, rep 2", "setting": "NSP1", "value": 0.3807}, {"measurement": "gfp signal, mean of duplicate wells", "setting": "NSP1", "value": "2781.5 and 4263"}, {"measurement": "nsp1 signal, mean of duplicate wells", "setting": "NSP1", "value": "1059 and 1824.5"}, {"measurement": "ratio (nsp1/gfp)", "setting": "NSP1", "value": "0.381 and 0.428"}]}, {"smiles": "COc1ccc(C=C2CSc3ccc(Cl)cc3C2=O)cc1O", "note": "[1Ai-5175]", "values": [{"measurement": "IC50", "setting": "eIF1A-RPS10 interaction", "value": 16, "unit": "µM"}, {"measurement": "binding to NTT-truncated eIF1A", "setting": "eIF1A without NTT", "value": "no binding"}, {"measurement": "NTT truncation IC50", "setting": "eIF1A without NTT; eIF1A without NTT", "value": "No binding"}, {"measurement": "IC50 concentration (µM), NTT truncation", "setting": "eIF1A without NTT; summary table, fluorescence binding assay", "value": "No binding"}, {"measurement": "effect on uORF / leaky scanning reporters", "setting": "[1]; 20uM (1Ai-5175 at 5uM), overnight", "value": "inhibit the short-distance reinitiation"}, {"measurement": "normalized to DMSO, 46 leaky, average", "setting": "[1]; 46 leaky reporter, average of biological repeats", "value": 0.842}, {"measurement": "normalized to DMSO, 46 leaky, biological repeats", "setting": "[1]; 46 leaky reporter, biological repeats 1-4", "value": "0.696 and 0.690 and 0.975 and 1.007"}, {"measurement": "normalized to DMSO, 46 leaky", "setting": "[1]; 46 leaky reporter, single replicates 1-8 (two dates)", "value": "0.670 and 0.722 and 0.651 and 0.728 and 1.015 and 0.935 and 0.924 and 1.090"}, {"measurement": "normalized to DMSO, -46, average", "setting": "[1]; -46 reporter, average of biological repeats", "value": 0.583}, {"measurement": "normalized to DMSO, -46, biological repeats", "setting": "[1]; -46 reporter, biological repeats 1-4", "value": "0.455 and 0.565 and 0.613 and 0.698"}, {"measurement": "normalized to DMSO, -46", "setting": "[1]; -46 reporter, single replicates 1-8 (two dates)", "value": "0.448 and 0.461 and 0.490 and 0.641 and 0.602 and 0.625 and 0.452 and 0.944"}, {"measurement": "ff/rl, 46 leaky reporter", "setting": "[1]; experiment 12.3.24", "value": "2.64E-02 and 2.84E-02 and 2.56E-02 and 2.87E-02"}, {"measurement": "ff/rl, 46 reporter", "setting": "[1]; experiment 12.3.24", "value": "9.52E-02 and 9.80E-02 and 1.04E-01 and 1.36E-01"}, {"measurement": "ff/rl, normal reporter", "setting": "[1]; experiment 12.3.24", "value": "3.34E-01 and 1.68E-01 and 2.05E-01 and 1.98E-01"}, {"measurement": "ff/rl, 46 leaky reporter", "setting": "[1]; experiment 13.03.24", "value": "4.57E-03 and 4.21E-03 and 4.16E-03 and 4.91E-03"}, {"measurement": "ff/rl, 46 reporter", "setting": "[1]; experiment 13.03.24", "value": "1.39E-02 and 1.45E-02 and 1.05E-02 and 2.19E-02"}, {"measurement": "ff/rl, normal reporter", "setting": "[1]; experiment 13.03.24", "value": "4.32E-02 and 3.04E-02 and 3.07E-02 and 3.75E-02"}, {"measurement": "reporter activity norm to DMSO, minus46", "setting": "[1]; minus46 reporter, 95nt from uORF to main ORF experiment, Figure 4N source data, replicate experiments, DMSO = 1", "value": "0.1896 and 0.185"}, {"measurement": "95nt from uORF to main ORF experiment, minus46, average (DMSO = 1)", "setting": "[1]; minus46 reporter, average", "value": 0.497}, {"measurement": "reporter activity norm to DMSO, minus 95", "setting": "[1]; minus 95 (nt) reporter, 95nt from uORF to main ORF experiment, Figure 4N source data, replicate experiments, DMSO = 1", "value": "0.3264 and 0.388"}, {"measurement": "95nt from uORF to main ORF experiment, minus 95nt, average (DMSO = 1)", "setting": "[1]; minus 95nt reporter, average", "value": 0.9478}, {"measurement": "reporter activity norm to DMSO, ref", "setting": "[1]; ref reporter, 95nt from uORF to main ORF experiment, Figure 4N source data, replicate experiments, DMSO = 1", "value": "0.381 and 0.3727"}, {"measurement": "95nt from uORF to main ORF experiment, ref, average (DMSO = 1)", "setting": "[1]; ref reporter, average", "value": 0.3768}, {"measurement": "normalized to DMSO, refference, average", "setting": "[1]; refference reporter, average of biological repeats", "value": 0.842}, {"measurement": "normalized to DMSO, refference, biological repeats", "setting": "[1]; refference reporter, biological repeats 1-4", "value": "0.886 and 0.712 and 0.917 and 0.851"}, {"measurement": "normalized to DMSO, refference", "setting": "[1]; refference reporter, single replicates 1-8 (two dates)", "value": "1.178 and 0.594 and 0.724 and 0.700 and 1.078 and 0.757 and 0.766 and 0.936"}, {"measurement": "normalized to DMSO, single replicates", "setting": "[1]; reporter 46, experiment 12.3.24", "value": "4.48E-01 and 4.61E-01 and 4.90E-01 and 6.41E-01"}, {"measurement": "normalize to DMSO, average", "setting": "[1]; reporter 46, experiment 12.3.24, DMSO = 1", "value": 0.51}, {"measurement": "normalized to DMSO, single replicates", "setting": "[1]; reporter 46, experiment 13.3.24", "value": "6.02E-01 and 6.25E-01 and 4.52E-01 and 9.44E-01"}, {"measurement": "normalize to DMSO, average", "setting": "[1]; reporter 46, experiment 13.3.24, DMSO = 1", "value": 0.6556}, {"measurement": "normalize to DMSO, average", "setting": "[1]; reporter 46 leaky, experiment 12.3.24, DMSO = 1", "value": 0.6928}, {"measurement": "normalized to DMSO, single replicates", "setting": "[1]; reporter 46 leaky, experiment 13.3.24", "value": "1.01E+00 and 9.35E-01 and 9.24E-01 and 1.09E+00"}, {"measurement": "normalize to DMSO, average", "setting": "[1]; reporter 46 leaky, experiment 13.3.24, DMSO = 1", "value": 0.991}, {"measurement": "normalized to DMSO, single replicates", "setting": "[1]; reporter normal (refference), experiment 12.3.24", "value": "1.18E+00 and 5.94E-01 and 7.24E-01 and 7.00E-01"}, {"measurement": "normalized to DMSO, single replicates", "setting": "[1]; reporter normal (refference), experiment 13.3.24", "value": "1.08E+00 and 7.57E-01 and 7.66E-01 and 9.36E-01"}, {"measurement": "normalize to DMSO, average", "setting": "[1]; reporter refference, experiment 12.3.24, DMSO = 1", "value": 0.7988}, {"measurement": "normalize to DMSO, average", "setting": "[1]; reporter refference, experiment 13.3.24, DMSO = 1", "value": 0.8842}, {"measurement": "inhibitory effect with extended (long) reinitiation distance", "setting": "[1]; uORF to main ORF distance extended by 49 nt", "value": "lost"}]}, {"smiles": "Oc1cc(Cl)ccc1Oc1ccc(Cl)cc1Cl", "note": "[1Ai-6248]", "values": [{"measurement": "IC50", "setting": "eIF1A-RPS10 interaction", "value": 28, "unit": "µM"}, {"measurement": "GFP reporter ratio nsp1/gfp, avg", "setting": "NSP1", "value": 0.4361}, {"measurement": "GFP reporter ratio nsp1/gfp, rep 1", "setting": "NSP1", "value": 0.4445}, {"measurement": "GFP reporter ratio nsp1/gfp, rep 2", "setting": "NSP1", "value": 0.4277}, {"measurement": "gfp signal, mean of duplicate wells", "setting": "NSP1", "value": "2505 and 4211.5"}, {"measurement": "nsp1 signal, mean of duplicate wells", "setting": "NSP1", "value": "1071.5 and 1872"}, {"measurement": "ratio (nsp1/gfp)", "setting": "NSP1", "value": "0.428 and 0.444"}]}, {"smiles": "Cn1c(=O)c2ccccc2n2c(CNC(c3ccc4c(c3)CCC4)c3cccs3)nnc12", "note": "(centres unmarked) [1Ai-7688]", "values": [{"measurement": "IC50", "setting": "eIF1A-RPS10 interaction", "value": 20, "unit": "µM"}, {"measurement": "GFP reporter ratio nsp1/gfp, avg", "setting": "NSP1", "value": 0.4413}, {"measurement": "GFP reporter ratio nsp1/gfp, rep 1", "setting": "NSP1", "value": 0.4413}, {"measurement": "gfp signal, mean of duplicate wells", "setting": "NSP1", "value": 1907}, {"measurement": "nsp1 signal, mean of duplicate wells", "setting": "NSP1", "value": 841.5}, {"measurement": "ratio (nsp1/gfp)", "setting": "NSP1", "value": 0.441}]}, {"smiles": "O=S(=O)(c1ccccc1)N1CCN(C2c3ccccc3-c3ccccc32)CC1", "note": "[1Ai-9025]", "values": [{"measurement": "IC50", "setting": "eIF1A-RPS10 interaction", "value": 17, "unit": "µM"}]}]}
